Key:
[1] = tested on: HMPV clinical isolate A2 strain TN 94-49; experiment: HMPV antiviral assay, Method 1 (LLC-MK2 cells, ATP-Lite); assay type: cell-based; conditions: human metapneumovirus, hMPV A2 TN/94-49, LLC-MK2 cells
Outline: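 EC50 derived by four-parameter logistic fit of percent cell health, measured as ATP-Lite luminescence after 7 days at 37° C, 5% CO2. Compounds tested as 10-point 2.5-fold dilutions starting at 2 μM against TN 94-49 virus (MOI 0.005) in LLC-MK2 cells seeded at 5,000/well, infection medium containing 2 μg/mL TPCK-trypsin, serum-free.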

[2] = tested on: HMPV clinical isolate A2 strain TN 94-49; experiment: HMPV antiviral assay, Method 2 (LLC-MK2 cells with CP-100-356, ATP-Lite); assay type: cell-based; conditions: human metapneumovirus; hMPV A2 TN/94-49, LLC-MK2 cells with CP-100-356, Method 2
Outline: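 EC50 comes from a four-parameter fit of percent cell viability (ATP-Lite, normalized to virus-only and cell-only wells) after 7 days at 37 °C. Infection used HMPV A2 TN 94-49 at MOI 0.16 in LLC-MK2 cells, with 2 μM P-gp inhibitor CP-100-356 and 2 μg/mL TPCK-trypsin final; dose range 200 nM top, 2.5-fold, 10 points, duplicate.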

| Structure (SMILES) | EC50 [1] | EC50 [2] |
| --- | --- | --- |
| C[C@]1(C(N)=O)COc2c1cc([C@@](O)(CNC(=O)c1cc(OC3CC3)c3nc(C4CC4)sc3c1)C1CC1)nc2-c1cc(Cl)c(F)cc1F [Example 3] | < 500 nM | < 200 nM |
| C[C@]1(C(N)=O)COc2c1cc([C@@](O)(CNC(=O)c1cc(OC3CC3)n3nc(C4CC4)cc3c1)C1CC1)nc2-c1cc(Cl)c(F)cc1F [Example 4] | < 500 nM | < 200 nM |
| C[C@]1(C(N)=O)COc2c1cc([C@@](O)(CNC(=O)c1cc(OC3CC3)c3nn(C4(F)CC4)cc3c1)C1CC1)nc2-c1cc(Cl)c(F)cc1F [Example 5] | < 500 nM | < 200 nM |
| COc1cc(C(=O)NC[C@@](O)(c2ccc(F)cc2)c2cc3c(c(-c4cc(Cl)c(F)cc4F)n2)OC[C@]3(C)C(N)=O)cc2cn(C3CC3)nc12 [Example 12] | < 500 nM | < 200 nM |
| COc1cc(C(=O)NC[C@@](O)(c2ccc(F)cc2)c2cc3c(c(-c4cc(Cl)c(F)cc4F)n2)OC[C@]3(C)C(N)=O)cc2cn(C3(F)CC3)nc12 [Example 14] | < 500 nM | < 200 nM |
| COc1cc(C(=O)NC[C@@](O)(c2ccccc2)c2cc3c(c(-c4ccc5c(c4)OC(F)(F)O5)n2)OC[C@]3(C)C(N)=O)cc2cn(C3CC3)nc12 [Example 18] | < 500 nM | < 200 nM |
| COc1cc(C(=O)NC[C@@](O)(c2ccccc2)c2cc3c(c(-c4ccc5c(c4)OC(F)(F)O5)n2)OC[C@]3(C)C(N)=O)cc2cn(C3(F)CC3)nc12 [Example 19] | < 500 nM | < 200 nM |
| COc1cc(C(=O)NC[C@](O)(c2cc3c(c(-c4cc(F)c(F)cc4F)n2)OC[C@]3(C)C(N)=O)C2CC2)cc2cc(C)c(F)nc12 [Example 21] | < 500 nM | < 200 nM |
| COc1cc(C(=O)NC[C@](O)(c2cc3c(c(-c4ccc5c(c4)OC(F)(F)O5)n2)OC[C@]3(C)C(N)=O)C2CC2)cc2cc(C)c(F)nc12 [Example 22] | < 500 nM | < 200 nM |
| C[C@]1(C(N)=O)COc2c1cc([C@@](O)(CNC(=O)c1cc(OC3CC3)c3nn(C4CC4)cc3c1)C1CC1)nc2-c1ccc(F)c(Cl)c1Cl [Example 23] | < 500 nM | < 200 nM |
| COc1cc(C(=O)NC[C@](O)(c2cc3c(c(-c4cc(F)c(F)cc4F)n2)OC[C@]3(C)C(N)=O)C2CC(F)(F)C2)cc2cn(C(F)F)nc12 [Example 33] | > 500 nM | < 200 nM |
| C[C@]1(C(N)=O)COc2c1cc([C@@](O)(CNC(=O)c1cc(OC3CC3)c3nn(C(F)F)cc3c1)C1CC(F)(F)C1)nc2-c1cc(F)c(F)cc1F [Example 34] | < 500 nM | < 200 nM |
| C[C@]1(C(N)=O)COc2c1cc([C@@](O)(CNC(=O)c1cc(OCCO)c3nn(C4CC4)cc3c1)C1CC1)nc2-c1ccc(F)c(Cl)c1F [Example 37] | > 500 nM | < 200 nM |
| C[C@@H](O)COc1cc(C(=O)NC[C@](O)(c2cc3c(c(-c4ccc(F)c(Cl)c4F)n2)OC[C@]3(C)C(N)=O)C2CC2)cc2cn(C3CC3)nc12 [Example 38] | > 500 nM | < 200 nM |
| COc1cc(C(=O)NC[C@@](O)(c2ccc(F)cc2)c2cc3c(c(-c4ccc(F)c(Cl)c4Cl)n2)OC[C@]3(C)C(N)=O)cc2cn(C3CC3)nc12 [Example 41] | < 500 nM | < 200 nM |
| COc1cc(C(=O)NC[C@@](O)(c2ccc(F)cc2)c2cc3c(c(-c4ccc(F)c(Cl)c4Cl)n2)OC[C@]3(C)C(N)=O)cc2cn(C3(F)CC3)nc12 [Example 43] | < 500 nM | < 200 nM |
| COc1cc(C(=O)NC[C@](O)(c2cc3c(c(-c4cc(F)c(F)cc4C)n2)OC[C@]3(C)C(N)=O)C2CC2)cc2cn(C3CC3)nc12 [Example 50] | > 500 nM | < 200 nM |
| COc1cc(C(=O)NCC(O)(c2cc3c(c(-c4cc(Cl)c(F)cc4F)n2)OC[C@]3(C)C(N)=O)c2cc3ccccc3s2)cc2cn(C3CC3)nc12 (stereo partly drawn) [Example 469] | > 500 nM |  |
| COc1cc(C(=O)NCC(O)(c2csc(Cl)c2)c2cc3c(c(-c4cc(Cl)c(F)cc4F)n2)OC[C@]3(C)C(N)=O)cc2cn(C3CC3)nc12 (stereo partly drawn) [Example 471] | < 500 nM |  |

Source: patent publication US20240368174A1, “Antiviral Heterocyclic Compounds” (Enanta Pharmaceuticals, Inc., priority 2023, published 2024)
